These results are taken from the OligoGym collection.

Oligonucleotides are written 5' to 3', each unit as a sugar letter and its base; * is a phosphorothioate linkage, no mark a phosphodiester; rarer units and linkages stand in square brackets, end groups in braces. Plain capitals give the bases only. d = 2'-deoxy (DNA); r = 2'-OH (RNA)
Also: test concentration or dose not given here.

For the first series, the target named is RHOQ. Briefly: reporter assay of Huesken 2005. As to conditions: siRNA.
“sense rUrGrCrUrGrUrUrGrCrCrCrArArArUrUrArUrAdTdT / antisense rUrArUrArArUrUrUrGrGrGrCrArArCrArGrCrAdAdG” gave a normalised inhibition (eCFP-eYFP dual reporter) of 85.6%.
Substance “sense rUrGrGrArUrCrUrGrCrCrUrUrArUrUrGrCrArUdTdT / antisense rArUrGrCrArArUrArArGrGrCrArGrArUrCrCrAdCdA” displayed a normalised inhibition (eCFP-eYFP dual reporter) of 88.7%.
Turning to “sense rUrGrGrArUrGrUrCrUrUrCrUrUrUrCrUrUrCrCdTdT / antisense rGrGrArArGrArArArGrArArGrArCrArUrCrCrAdAdA”, the normalised inhibition (eCFP-eYFP dual reporter) was 68.4%.
On to “sense rUrGrUrArUrGrUrGrArGrCrUrUrUrGrUrArGrAdTdT / antisense rUrCrUrArCrArArArGrCrUrCrArCrArUrArCrAdAdC”, for which the normalised inhibition (eCFP-eYFP dual reporter) was found to be 75.3%.
The substance “sense rUrGrUrGrArArCrArArCrCrUrArArUrGrCrArUdTdT / antisense rArUrGrCrArUrUrArGrGrUrUrGrUrUrCrArCrAdAdT” returned a normalised inhibition (eCFP-eYFP dual reporter) of 75.4%.
The same measure, in the same setting: as for “sense rUrGrUrGrGrArUrCrUrGrCrCrUrUrArUrUrGrCdTdT / antisense rGrCrArArUrArArGrGrCrArGrArUrCrCrArCrAdGdC”, the figure is 68.8%.
Take “sense rUrUrArArUrUrCrArCrArUrGrArCrUrUrGrArGdTdT / antisense rCrUrCrArArGrUrCrArUrGrUrGrArArUrUrArAdCdA”: the normalised inhibition (eCFP-eYFP dual reporter) came to 54.4%.
In the case of “sense rUrUrCrCrArArGrArArArUrGrGrUrGrGrUrUrCdTdT / antisense rGrArArCrCrArCrCrArUrUrUrCrUrUrGrGrArAdGdA”, the normalised inhibition (eCFP-eYFP dual reporter) was determined as 38.3%.
Substance “sense rUrUrGrArArArArUrGrArCrArGrCrCrUrUrArAdTdT / antisense rUrUrArArGrGrCrUrGrUrCrArUrUrUrUrCrArAdGdT” gave a normalised inhibition (eCFP-eYFP dual reporter) of 87.1%.
In turn, “sense rUrUrGrCrUrGrUrUrGrCrCrCrArArArUrUrArUdTdT / antisense rArUrArArUrUrUrGrGrGrCrArArCrArGrCrArAdGdT” came in with a normalised inhibition (eCFP-eYFP dual reporter) of 83.5%.
The substance “sense rUrUrGrUrGrArArCrArArCrCrUrArArUrGrCrAdTdT / antisense rUrGrCrArUrUrArGrGrUrUrGrUrUrCrArCrArAdTdG” showed a normalised inhibition (eCFP-eYFP dual reporter) of 83%.
The same measure, in the same setting: the value for “sense rUrUrUrCrUrUrArUrUrUrArArUrUrUrUrGrGrUdTdT / antisense rArCrCrArArArArUrUrArArArUrArArGrArArAdGdT” was 44.1%.

For a further series, the target named is UBE2I. Briefly: reporter assay of Huesken 2005. As to conditions: siRNA. For orientation: A reporter such as luciferase makes a cellular process visible.
As to “sense rArArArUrGrUrArArArUrUrCrGrArArCrCrArCdTdT / antisense rGrUrGrGrUrUrCrGrArArUrUrUrArCrArUrUrUdTdG”, the normalised inhibition (eCFP-eYFP dual reporter) stood at 53.9%.
In turn, “sense rArArCrCrArArArUrArUrCrCrArArGrArCrCrCdTdT / antisense rGrGrGrUrCrUrUrGrGrArUrArUrUrUrGrGrUrUdCdA” yielded a normalised inhibition (eCFP-eYFP dual reporter) of 48.9%.
The substance “sense rArArCrCrUrCrArUrGrArArCrUrGrGrGrArGrUdTdT / antisense rArCrUrCrCrCrArGrUrUrCrArUrGrArGrGrUrUdCdA” returned a normalised inhibition (eCFP-eYFP dual reporter) of 34.5%.
The same measure, in the same setting: as for “sense rArArGrArArArGrGrGrArCrUrCrCrGrUrGrGrGdTdT / antisense rCrCrCrArCrGrGrArGrUrCrCrCrUrUrUrCrUrUdTdC”, the figure is 45.6%.
Same read-out and setting: the value for “sense rArArUrGrUrGrUrArCrCrCrUrUrCrGrGrGrGrAdTdT / antisense rUrCrCrCrCrGrArArGrGrGrUrArCrArCrArUrUdCdG” was 59.6%; that for “sense rArCrArGrUrGrUrGrCrCrUrGrUrCrCrArUrCrUdTdT / antisense rArGrArUrGrGrArCrArGrGrCrArCrArCrUrGrUdCdC” was 59.2%; that for “sense rArCrCrArArArArUrGrUrArArArUrUrCrGrArAdTdT / antisense rUrUrCrGrArArUrUrUrArCrArUrUrUrUrGrGrUdGdG” was 86.4%.
Take “sense rArCrCrArArArUrArUrCrCrArArGrArCrCrCrAdTdT / antisense rUrGrGrGrUrCrUrUrGrGrArUrArUrUrUrGrGrUdTdC”: the normalised inhibition (eCFP-eYFP dual reporter) is 83.9%.
Regarding “sense rArCrCrArUrUrArUrUrUrCrArCrCrCrGrArArUdTdT / antisense rArUrUrCrGrGrGrUrGrArArArUrArArUrGrGrUdGdG”, the normalised inhibition (eCFP-eYFP dual reporter) turned out to be 88.3%.
For “sense rArCrCrCrArUrUrUrGrGrUrUrUrCrGrUrGrGrCdTdT / antisense rGrCrCrArCrGrArArArCrCrArArArUrGrGrGrUdGdG”, the normalised inhibition (eCFP-eYFP dual reporter) is 56.9%.
Consider “sense rArCrCrUrCrArUrGrArArCrUrGrGrGrArGrUrGdTdT / antisense rCrArCrUrCrCrCrArGrUrUrCrArUrGrArGrGrUdTdC”, for which the normalised inhibition (eCFP-eYFP dual reporter) was 58.8%.
Regarding “sense rArGrArArArGrGrGrArCrUrCrCrGrUrGrGrGrAdTdT / antisense rUrCrCrCrArCrGrGrArGrUrCrCrCrUrUrUrCrUdTdT”, the normalised inhibition (eCFP-eYFP dual reporter) was determined as 63.1%.
The substance “sense rArGrArCrCrArCrCrCrArUrUrUrGrGrUrUrUrCdTdT / antisense rGrArArArCrCrArArArUrGrGrGrUrGrGrUrCrUdTdT” displayed a normalised inhibition (eCFP-eYFP dual reporter) of 79.8%.
“sense rArGrArUrCrCrUrArUrUrArGrGrArArUrArCrAdTdT / antisense rUrGrUrArUrUrCrCrUrArArUrArGrGrArUrCrUdGdT”: the normalised inhibition (eCFP-eYFP dual reporter) was 90.4%.
For “sense rArGrArUrGrArUrUrArUrCrCrArUrCrUrUrCrGdTdT / antisense rCrGrArArGrArUrGrGrArUrArArUrCrArUrCrUdTdT”, the normalised inhibition (eCFP-eYFP dual reporter) was determined as 52.7%.
For the substance “sense rArGrCrCrArUrCrArCrArArUrCrArArArCrArGdTdT / antisense rCrUrGrUrUrUrGrArUrUrGrUrGrArUrGrGrCrUdGdG”, the normalised inhibition (eCFP-eYFP dual reporter) was found to be 60.1%.
Take “sense rArGrCrUrCrArArGrCrArGrArGrGrCrCrUrArCdTdT / antisense rGrUrArGrGrCrCrUrCrUrGrCrUrUrGrArGrCrUdGdG”: the normalised inhibition (eCFP-eYFP dual reporter) came to 89.5%.
Consider “sense rArGrGrGrArCrUrCrCrGrUrGrGrGrArArGrGrAdTdT / antisense rUrCrCrUrUrCrCrCrArCrGrGrArGrUrCrCrCrUdTdT”, for which the normalised inhibition (eCFP-eYFP dual reporter) was 72.1%.
With “sense rArUrArCrArGrGrArArCrUrUrCrUrArArArUrGdTdT / antisense rCrArUrUrUrArGrArArGrUrUrCrCrUrGrUrArUdTdC”, the normalised inhibition (eCFP-eYFP dual reporter) stood at 52.1%.
“sense rArUrGrUrArArArUrUrCrGrArArCrCrArCrCrAdTdT / antisense rUrGrGrUrGrGrUrUrCrGrArArUrUrUrArCrArUdTdT” registered a normalised inhibition (eCFP-eYFP dual reporter) of 75%.
Still for that read-out and setting: as for “sense rArUrUrCrCrArGrGrArArArGrArArArGrGrGrAdTdT / antisense rUrCrCrCrUrUrUrCrUrUrUrCrCrUrGrGrArArUdGdG”, the figure is 83.9%; as for “sense rArUrUrCrGrArArCrCrArCrCrArUrUrArUrUrUdTdT / antisense rArArArUrArArUrGrGrUrGrGrUrUrCrGrArArUdTdT”, 81%; as for “sense rArUrUrUrGrGrUrUrUrCrGrUrGrGrCrUrGrUrCdTdT / antisense rGrArCrArGrCrCrArCrGrArArArCrCrArArArUdGdG”, 51.6%.
On the same count and under the same terms, as for “sense rCrArArGrArCrCrCrArGrCrUrCrArArGrCrArGdTdT / antisense rCrUrGrCrUrUrGrArGrCrUrGrGrGrUrCrUrUrGdGdA”, the figure is 75.8%; as for “sense rCrArCrArArUrCrArArArCrArGrArUrCrCrUrAdTdT / antisense rUrArGrGrArUrCrUrGrUrUrUrGrArUrUrGrUrGdAdT”, 87.4%.
For the substance “sense rCrArCrCrCrArUrUrUrGrGrUrUrUrCrGrUrGrGdTdT / antisense rCrCrArCrGrArArArCrCrArArArUrGrGrGrUrGdGdT”, the normalised inhibition (eCFP-eYFP dual reporter) was 85.4%.
As for “sense rCrArGrArGrGrCrCrUrArCrArCrGrArUrUrUrAdTdT / antisense rUrArArArUrCrGrUrGrUrArGrGrCrCrUrCrUrGdCdT”, the normalised inhibition (eCFP-eYFP dual reporter) was determined as 83.8%.
“sense rCrArGrArUrCrCrUrArUrUrArGrGrArArUrArCdTdT / antisense rGrUrArUrUrCrCrUrArArUrArGrGrArUrCrUrGdTdT” gave a normalised inhibition (eCFP-eYFP dual reporter) of 74.4%.
“sense rCrArGrUrGrUrGrCrCrUrGrUrCrCrArUrCrUrUdTdT / antisense rArArGrArUrGrGrArCrArGrGrCrArCrArCrUrGdTdC” came in with a normalised inhibition (eCFP-eYFP dual reporter) of 80.1%.
With “sense rCrCrArGrCrCrArUrCrArCrArArUrCrArArArCdTdT / antisense rGrUrUrUrGrArUrUrGrUrGrArUrGrGrCrUrGrGdCdC”, the normalised inhibition (eCFP-eYFP dual reporter) amounted to 56%.
On to “sense rCrCrArGrGrArArArGrArArArGrGrGrArCrUrCdTdT / antisense rGrArGrUrCrCrCrUrUrUrCrUrUrUrCrCrUrGrGdAdA”, for which the normalised inhibition (eCFP-eYFP dual reporter) is 54.9%.
Substance “sense rCrCrCrGrArUrGrGrCrArCrGrArUrGrArArCrCdTdT / antisense rGrGrUrUrCrArUrCrGrUrGrCrCrArUrCrGrGrGdAdT” showed a normalised inhibition (eCFP-eYFP dual reporter) of 55%.
Regarding “sense rCrCrGrArUrGrGrCrArCrGrArUrGrArArCrCrUdTdT / antisense rArGrGrUrUrCrArUrCrGrUrGrCrCrArUrCrGrGdGdA”, the normalised inhibition (eCFP-eYFP dual reporter) worked out at 81.8%.
As for “sense rCrCrUrCrArUrGrArArCrUrGrGrGrArGrUrGrCdTdT / antisense rGrCrArCrUrCrCrCrArGrUrUrCrArUrGrArGrGdTdT”, the normalised inhibition (eCFP-eYFP dual reporter) was determined as 72.2%.
“sense rCrCrUrUrCrGrGrGrGrArCrArGrUrGrUrGrCrCdTdT / antisense rGrGrCrArCrArCrUrGrUrCrCrCrCrGrArArGrGdGdT” displayed a normalised inhibition (eCFP-eYFP dual reporter) of 51.1%.
“sense rCrGrArArUrGrUrGrUrArCrCrCrUrUrCrGrGrGdTdT / antisense rCrCrCrGrArArGrGrGrUrArCrArCrArUrUrCrGdGdG” registered a normalised inhibition (eCFP-eYFP dual reporter) of 45.1%.
In turn, “sense rCrGrArUrGrArArCrCrUrCrArUrGrArArCrUrGdTdT / antisense rCrArGrUrUrCrArUrGrArGrGrUrUrCrArUrCrGdTdG” showed a normalised inhibition (eCFP-eYFP dual reporter) of 78.2%.
